Measurements from patent US9849145B2, “Pharmaceutical composition containing honeysuckle extract and antibiotics, pharmaceutical kit, and use of honeysuckle extract for preparation of drug” (priority 2011, dated 2017).
“And” between values parts separate entries of the source, which are not always exact repeats. Identical values can stand only once.

Tests used:
Klebsiella pneumoniae [1] = system: Klebsiella pneumoniae; parameters: key: Resistant; Sensitive; Intermediate degree (moderate resistance); conditions: clinical isolate, specimen 31494, sputum; cited from earlier work
Pseudomona aeruginosa = system: Pseudomona aeruginosa; parameters: key: Resistant; Sensitive; Intermediate degree (moderate resistance); conditions: clinical isolate, specimen 12; cited from earlier work
Escherichia coli = system: Escherichia coli; parameters: key: Resistant; Sensitive; Intermediate degree (moderate resistance); conditions: clinical isolate, specimen 32042, urine; cited from earlier work
Klebsiella pneumoniae [2] = test: Bacterial inhibition test of antibiotics, Klebsiella pneumoniae; assay type: cell-based; conditions: 2-fold dilutions from 1 mg/mL to 1:2048; 37° C. 20 h; 630 nm
Description: In this example, bacterial inhibition effects of antibiotics on the four multiple resistant bacteria in Tables 1-4 were measured.
The activated bacterium suspension was diluted to a concentration equivalent to 0.5 McFarland turbidity standard, and diluted with the culture medium of MH broth in a proportion of 1:1000, and then added into each well in amount of 100 μL per well.
The antibiotics resisted by the above four multiple resistant bacteria were diluted to 1:2048 (2^−11) from 1 mg/mL (initial concentration) by 2-fold dilution, and then the original solution and different concentrations of diluted antibiotics were added respectively into the well containing the bacterium suspension, with each well added with 100 μL, and the minimum inhibitory concentration (MIC) of each antibiotic was recorded finally.
Meanwhile, a bacterium solution control (that is, bacterium solution plus an equal volume of culture medium) and a blank culture medium control were set.
Cultivation was performed at 37° C. for 20 h, and detection was performed at 630 nm by the microplate reader, and the bacterial inhibition rate is calculated according to formula (2), and the data obtained is put into formula (1) to calculate specific distance, and the specific distance is added to the virus dilution index with pathologic rate less than 50% to obtain half inhibitory concentration (Reed-Muench method). […]

AMP-sensitive strain = test: AMP-sensitive bacterium infection model in mice (quality control); assay type: in vivo, KM mice; conditions: for protection / control of infection by AMP alone (in words): AMP-sensitive bacterium infection model-AMP intervention control group
Source text: The control strain is clinically isolated AMP-sensitive strain, which was isolated from the sputum specimen of the patient in the ward of the Fourth People's Hospital of Jinan in 2010, and preserved until today.
(§1) KM mice were purchased from the Experimental Animal Center of Shandong University, weighing 16-18 g, with half male and half female and animal license number of SCXK (Lu) 20090001.
(§2) There were 5 control groups with 10 mice in each group: normal control group, AMP-sensitive bacterium quality control model control group (AMPS) and the treatment group thereof, AMP-resistant bacterium model control group (AMPR) and the treatment group thereof;
(§3) After being grouped, the animals were injected intraperitoneally with 2.5×10^7 (Klebsiella pneumoniae)*100 μL^−1 per animal, then immediately treated by administration, and the route of administration alternated between tail intravenous injection and intraperitoneal injection (the sterile normal saline was used as the solvent for drugs except W, since continuous tail intravenous injection causes damage to tail veins, therefore the tail intravenous injection and intraperitoneal injection were performed alternatively), the animal was injected once a day for 5 days continuously. The efficacy of each group was evaluated according to the animal mortality and intraperitoneal bacterial count.
(§4) Intraperitoneal bacterium counting of dead animals: the animals were injected intraperitoneally with 1 ml sterile normal saline immediately after they died, and the abdomens of the animals were kneaded gently for 1 min, the ascites was drawn and coated on the plate after gradient dilution, and cultured at 37° C. overnight, then the colonies were counted;
(§5) Intraperitoneal bacterium counting of surviving animals: the mice were administrated continuously for 5 days and sacrificed through dislocation 2 h after the last administration, then the mice were injected intraperitoneally with 1 ml sterile normal saline, and the abdomens of the mice were kneaded gently for 1 min, the ascites was drawn and coated on the plate after gradient dilution, and cultured at 37° C. overnight, then the colonies were counted, colony count results of the control groups are shown in table 9 below, and colony count results of the experimental groups are shown in table 10 below.

Klebsiella pneumoniae [3] = system: Klebsiella pneumoniae; parameters: key: Resistant; Sensitive; Intermediate degree (moderate resistance); conditions: clinical isolate, specimen 31853, urine; cited from earlier work
[4] = system: AMP-resistant Klebsiella pneumoniae; test: AMP-resistant bacterium infection model in mice (mortality, intraperitoneal colony count); assay type: in vivo, KM mice; conditions: for protection / control of infection by AMP alone (in words): AMP-resistant bacterium infection model-AMP intervention control group
Source text: This example studies the antimicrobial effects in vivo of the honeysuckle extracts N1 to N4 which are respectively combined with antibiotics, and the antimicrobial effects were compared with that of the honeysuckle water decoction W combined with the antibiotic.
The experimental strain is Klebsiella pneumoniae which was isolated from the sputum specimen of the patient in the ward of the Fourth People's Hospital of Jinan in 2010, and detection of the drug resistant spectrum is shown in Table 6 below.
as §1, §2
There were 15 experimental groups with 10 mice in each group: N1 to N4 and W were respectively combined with AMP high-dose group, AMP medium-dose group and AMP low-dose group.
as §3, §4, §5

[5] = AMP-sensitive bacterium model, AMP 16.80 mg per mouse alone, n = 10
[6] = AMP intervention control group: AMP 16.80 mg per mouse alone, n = 10

For CC1(C)S[C@@H]2[C@H](NC(=O)[C@H](N)c3ccccc3)C(=O)N2[C@H]1C(=O)O [AMP, ampicillin], the “drug resistant spectrum of the experimental strain of Klebsiella pneumoniae” value (Klebsiella pneumoniae [1]) is given as “R”, the “resistance of Pseudomona aeruginosa to the antibiotic” value (Pseudomona aeruginosa) is given as “R” and the “resistance of Escherichia coli to the antibiotic” value (Escherichia coli) is given as “R”. The “bacterial inhibition effect of the antibiotic” value (Klebsiella pneumoniae [2]) was “inhibitory effect on Klebsiella pneumoniae in the first two dilutions (1 mg/mL, 0.5 mg/mL)”, the “protection / control of infection by AMP alone (in words)” value (from here on “protection / control of infection”) (AMP-sensitive strain) was “protected effectively” and the “protection / control of infection” value (AMP-sensitive strain; listed as ampicillin) was “sensitive to ampicillin”. For the same molecule, the “Mortality (%)” value (AMP-sensitive strain; [5]) was 0%, the “Number of deaths 1st day” value (AMP-sensitive strain; [5]) was 0 and the “Number of deaths 2nd day” value (AMP-sensitive strain; [5]) was 0. The “Number of deaths 3rd day” value (AMP-sensitive strain; [5]) was 0, the “Number of deaths 4th day” value (AMP-sensitive strain; [5]) was 0 and the “Number of deaths 5th day” value (AMP-sensitive strain; [5]) was 0. For the same molecule, the “Number of deaths Total” value (AMP-sensitive strain; [5]) was 0, the “Bacterium isolation positive rate (%)” value (AMP-sensitive strain; AMPS model, AMP 16.80 mg per mouse alone) was 10% and the “Intraperitoneal colony count of animals” value (AMP-sensitive strain; AMPS model, AMP 16.80 mg per mouse alone, one value per mouse Nos. 1-10, unit not given in Table 9 (Table 10 note: CFU/mL)) was 1.054 × 10^1 and 0 (9×). The “resistance of Klebsiella pneumoniae to the antibiotic” value (Klebsiella pneumoniae [3]) was “R”, the “Mortality (%)” value [4, 6] was 100% and the “Number of deaths 1st day” value [4, 6] was 0. For the same molecule, the “Number of deaths 2nd day” value [4, 6] was 7, the “Number of deaths 3rd day” value [4, 6] was 2 and the “Number of deaths 4th day” value [4, 6] was 1. For the same molecule, the “Number of deaths 5th day” value [4, 6] was 0, the “Number of deaths Total” value [4, 6] was 10 and the “protection / control of infection” value [4] was “cannot be protected (all of animals died)”. The “protection / control of infection” value ([4]; listed as ampicillin) was “cannot be controlled by ampicillin”, the “Bacterium isolation positive rate (%)” value ([4]; AMPR model, AMP 16.80 mg per mouse alone) was 100% and the “Intraperitoneal colony count of animals” value ([4]; AMPR model, AMP 16.80 mg per mouse alone, one value per mouse Nos. 1-10, unit not given in Table 9 (Table 10 note: CFU/mL)) was 3.557 × 10^10 and 3.478 × 10^10 and 3.578 × 10^10 and 3.487 × 10^10 and 3.550 × 10^10 and 3.373 × 10^10 and 3.360 × 10^10 and 6.617 × 10^9 and 4.800 × 10^9 and 5.467 × 10^9.
